Data published in patent publication US10273224B2, “Substituted pyrimidine compounds, compositions and medicinal applications thereof” (JUBILANT BIOSYS LIMITED, priority 2013, dated 2019).
pIC50: −log10 of the molar value.

Target: T1, EGFR (L858R & T790M) (Homo sapiens, UniProt P00533, L858R/T790M)
T1 construct: GST; purchased Proqinase
Assay: EGFR (L858R & T790M) inhibition assay, HTRF method
Details: biochemical HTRF; EGFR (T790M/L858R) 2.5 nM, ATP 5 μM, 60 min room temperature
Method: Example 25: Biological Activity: EGFR T790M Assay Protocol
The objective of the experiment is to find the IC50 for the compounds using HTRF method.
Reagents for Enzyme Assay:
1. Enzyme Assay Buffer: 60 mM HEPES (pH 7.4), 50 mM NaCl, 20 mM MgCl2, 5 mM MnCl2, filter using 0.2 µm pore size, store at 4° C.
Supplements (add fresh to the enzyme buffer): Make 1M DTT stock, 5% BSA stock and 0.1M Na3OV4 stored at 4° C. Enzyme assay buffer 50 ml, 1 M DTT 100 μl, 5% BSA 500 μl, 0.1M Na3OV4 50 μl.
2. GST-hEGFR (L858R), active: EGFR (T790M/L858R), active (Proqinase), 3.6 μM stock; 2.5 nM in final assay.
3. Gastrin Precusor-Biotinylated: Gastrin precursor (Tyr87) biotinylated peptide (EEAY*GWM), Cell Signaling Tech 1310, Lot-7, Want final 0.5 μM in assay
4. ATP: 10 mM stock in 100 μl Enzyme assay buffer pH 7.4 prepared freshly, want 5 μM in final assay.
5. Test compounds: Dissolve powders in 100% DMSO to a final stock concentration of 10 mM (volume in μL to add for 10 mM=mg powder×10^5/MW). Final comp concentration in the assay plate is starting at 10 μM.
1. HTRF buffer: 50 mM Tris-HCl, pH-7.5, 100 mM NaCl, 0.1% BSA, 0.05% Tween20, 0.5 mM EDTA, filter using 0.2 µm pore size, store at 4° C.
Phycolink® Streptavidin-Allophycocyanin (SA-APC) Prozyme, Cat. #PJ25S, Lot #896 085, 2.06 mg/mL, APC concentration is 11.6 μM, streptavidin concentration is 15.5 μM. Want 12 nM final in assay (based on streptavidin concentration).
2. Europium-W1024-PT-66 Anti Phospho Tyrosine Antibody: Perkin Elmer (AD0068), monoclonal IgG1 that recognizes phospho tyrosine peptide 100 μg/ml stock. Want 0.1 nM final in assay.
• 1. Make the compound dilution by TECAN as per the above scheme. • 2. Add 16 μl of diluted compound to the assay plate by using TECAN • 3. Add 10 μl of enzyme mix to each well except mins. • 4. Add 20 μl of substrate and ATP mix into each well of the assay plate manually. • 5. Incubate the plate at room temperature for 60 min with shaking. • 6. Meanwhile prepare the HTRF mix and add 75 μl to the HTRF plate. • 7. When the incubation is over, transfer 10 μl of the reaction mixture to the HTRF assay plate and incubate for 30 min at room temperature with shaking. • 8. Take the reading in Pherastar (ext 337 nm, em 665 & 620 nm). • 9. Analyze the results using Graphpad prism after calculation the z factor, signal window and % inhibition to get the IC50.
Compounds having IC50<10 nM are designated as “A”; 10-100 nM are designated as “B”; and >100 nM as “C”.

T1 sequence (P00533 25-1210 T790M/L858R): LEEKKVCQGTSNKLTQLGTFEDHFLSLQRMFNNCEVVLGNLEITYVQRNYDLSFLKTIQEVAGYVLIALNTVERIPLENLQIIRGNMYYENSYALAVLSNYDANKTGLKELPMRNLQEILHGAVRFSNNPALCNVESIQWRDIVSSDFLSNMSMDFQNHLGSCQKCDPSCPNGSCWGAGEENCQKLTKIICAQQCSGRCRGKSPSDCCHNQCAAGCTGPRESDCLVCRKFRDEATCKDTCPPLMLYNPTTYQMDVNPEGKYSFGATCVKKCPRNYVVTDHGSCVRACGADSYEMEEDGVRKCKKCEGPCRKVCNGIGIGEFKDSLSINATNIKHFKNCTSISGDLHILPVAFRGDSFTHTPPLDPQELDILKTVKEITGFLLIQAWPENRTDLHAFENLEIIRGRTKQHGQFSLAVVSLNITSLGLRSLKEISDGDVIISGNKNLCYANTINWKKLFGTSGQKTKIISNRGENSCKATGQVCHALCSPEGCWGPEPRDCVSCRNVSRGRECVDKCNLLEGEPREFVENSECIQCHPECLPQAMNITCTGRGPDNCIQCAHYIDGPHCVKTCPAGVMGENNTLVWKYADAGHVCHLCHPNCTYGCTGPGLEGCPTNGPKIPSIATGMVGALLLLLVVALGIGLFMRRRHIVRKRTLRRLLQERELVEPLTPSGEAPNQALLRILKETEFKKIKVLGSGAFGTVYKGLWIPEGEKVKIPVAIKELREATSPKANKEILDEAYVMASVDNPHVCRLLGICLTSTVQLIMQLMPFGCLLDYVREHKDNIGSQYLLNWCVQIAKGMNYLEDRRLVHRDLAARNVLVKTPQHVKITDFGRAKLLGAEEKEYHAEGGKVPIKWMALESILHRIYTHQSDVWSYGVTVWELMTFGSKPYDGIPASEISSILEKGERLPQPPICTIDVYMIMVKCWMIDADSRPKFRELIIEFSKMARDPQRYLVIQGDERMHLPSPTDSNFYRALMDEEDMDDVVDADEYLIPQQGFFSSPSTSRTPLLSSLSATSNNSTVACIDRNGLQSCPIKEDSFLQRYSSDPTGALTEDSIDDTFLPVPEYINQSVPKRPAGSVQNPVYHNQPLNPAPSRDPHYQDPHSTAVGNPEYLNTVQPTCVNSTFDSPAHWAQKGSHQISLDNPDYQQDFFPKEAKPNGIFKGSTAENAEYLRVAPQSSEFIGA

Work on `C=CC(=O)Nc1cccc(Nc2nc(Nc3cnn(CCOC)c3C)ncc2Cl)c1` [Compound I-3, N-(3-((5-chloro-2-((1-(2-methoxyethyl)-5-methyl-1H-pyrazol-4-yl)amino)pyrimidin-4-yl)amino)phenyl)acrylamide] yielded a pIC50 of 7.00 to 8.00.

Work on `C=CC(=O)Nc1cccc(Nc2nc(Nc3cnn(C(C)C)c3)ncc2Cl)c1` [Compound I-4, N-(3-((5-chloro-2-((1-isopropyl-1H-pyrazol-4-yl)amino)pyrimidin-4-yl)amino)phenyl)acrylamide] yielded a pIC50 of 7.00 to 8.00.

For `C=CC(=O)Nc1cccc(Nc2nc(Nc3cnn(CCN(C)C)c3)ncc2Cl)c1` [Compound I-5, N-(3-((5-chloro-2-((1-(2-(dimethylamino)ethyl)-1H-pyrazol-4-yl)amino)pyrimidin-4-yl)amino)phenyl)acrylamide], the pIC50 was 7.00 to 8.00.

`COCCn1cc(Nc2ncc(Cl)c(Nc3cccc(NC(=O)C=C4CCCCC4)c3)n2)cn1` [Compound I-6, N-(3-((5-chloro-2-((1-(2-methoxyethyl)-1H-pyrazol-4-yl)amino)pyrimidin-4-yl)amino)phenyl)-2-cyclohexylideneacetamide] was tested, and the pIC50 was < 7.00.

`C=CC(=O)Nc1cccc(Nc2nc(Nc3cnn(CC4CC4)c3)ncc2Cl)c1` [Compound I-7, N-(3-((5-chloro-2-((1-(cyclopropylmethyl)-1H-pyrazol-4-yl)amino)pyrimidin-4-yl)amino)phenyl)acrylamide] showed a pIC50 of 7.00 to 8.00.

With `C=CC(=O)Nc1cccc(Nc2nc(Nc3c(C)nn(C4CCN(C)CC4)c3C)ncc2Cl)c1` [Compound I-8, N-(3-((5-chloro-2-((3,5-dimethyl-1-(1-methylpiperidin-4-yl)-1H-pyrazol-4-yl)amino)pyrimidin-4-yl)amino)phenyl)acrylamide] the pIC50 was < 7.00.

For `C=C(C)C(=O)Nc1cccc(Nc2nc(Nc3cnn(C4CCN(C)CC4)c3)ncc2Cl)c1` [Compound I-9, N-(3-((5-chloro-2-((1-(1-methylpiperidin-4-yl)-1H-pyrazol-4-yl)amino)pyrimidin-4-yl)amino)phenyl)methacrylamide], the pIC50 was < 7.00.

With `C=CC(=O)Nc1cccc(Nc2nc(Nc3cnn(S(C)(=O)=O)c3)ncc2Cl)c1` [Compound I-10, N-(3-((5-chloro-2-((1-(methylsulfonyl)-1H-pyrazol-4-yl)amino)pyrimidin-4-yl)amino)phenyl)acrylamide] the pIC50 was 7.00 to 8.00.

`C=CC(=O)Nc1cccc(Nc2nc(Nc3c(C)nn(C)c3C)ncc2Cl)c1` [Compound I-11, N-(3-((5-chloro-2-((1,3,5-trimethyl-1H-pyrazol-4-yl)amino)pyrimidin-4-yl)amino)phenyl)acrylamide] was tested, and the pIC50 was < 7.00.

In the case of `C=CC(=O)Nc1cccc(Nc2nc(Nc3cnn(C4CCN(C)CC4)c3)ncc2OC)c1` [Compound I-12, N-(3-((5-methoxy-2-((1-(1-methylpiperidin-4-yl)-1H-pyrazol-4-yl)amino)pyrimidin-4-yl)amino)phenyl)acrylamide], the pIC50 was 7.00 to 8.00.

With `C=CC(=O)Nc1cccc(Nc2nc(Nc3cnn(C4CCN(C)CC4)c3)ncc2C)c1` [Compound I-13, N-(3-((5-methyl-2-((1-(1-methylpiperidin-4-yl)-1H-pyrazol-4-yl)amino)pyrimidin-4-yl)amino)phenyl)acrylamide] the pIC50 was 7.00 to 8.00.

`C=CC(=O)Nc1cccc(Nc2nc(Nc3cnn(C4CCN(C)CC4)c3)ncc2C(F)(F)F)c1` [Compound I-14, N-(3-((2-((1-(1-methylpiperidin-4-yl)-1H-pyrazol-4-yl)amino)-5-(trifluoromethyl)pyrimidin-4-yl)amino)phenyl)acrylamide] was tested, and the pIC50 was < 7.00.

For `C=CC(=O)Nc1cccc(Nc2nc(Nc3cnn(C)c3)ncc2C)c1` [Compound I-15, N-(3-((5-methyl-2-((1-methyl-1H-pyrazol-4-yl)amino)pyrimidin-4-yl)amino)phenyl)acrylamide], the pIC50 was 7.00 to 8.00.

For `C=CC(=O)Nc1cccc(Nc2nc(Nc3cnn(C4CCN(CCF)CC4)c3)ncc2Cl)c1` [Compound I-16, N-(3-((5-chloro-2-((1-(1-(2-fluoroethyl)piperidin-4-yl)-1H-pyrazol-4-yl)amino)pyrimidin-4-yl)amino)phenyl)acrylamide], the pIC50 was > 8.00.

`C=CC(=O)Nc1cccc(Nc2nc(Nc3cnn(CC(C)(C)O)c3)ncc2Cl)c1` [Compound I-17, N-(3-((5-chloro-2-((1-(2-hydroxy-2-methylpropyl)-1H-pyrazol-4-yl)amino)pyrimidin-4-yl)amino)phenyl)acrylamide] was tested, and the pIC50 was < 7.00.

With `C=CC(=O)Nc1cccc(Nc2nc(Nc3cnn(C4CCN(C)CC4)c3)ncc2F)c1` [Compound I-18, N-(3-((5-fluoro-2-((1-(1-methylpiperidin-4-yl)-1H-pyrazol-4-yl)amino)pyrimidin-4-yl)amino)phenyl)acrylamide] the pIC50 was 7.00 to 8.00.

With `C=CC(=O)Nc1cccc(Nc2nc(Nc3cnn(C)c3)ncc2Cl)c1` [Compound I-19, N-(3-((5-chloro-2-((1-methyl-1H-pyrazol-4-yl)amino)pyrimidin-4-yl)amino)phenyl)acrylamide] the pIC50 was > 8.00.

`C=CC(=O)Nc1cccc(Nc2nc(Nc3cnn(CCOC)c3)ncc2Cl)c1` [Compound I-20, N-(3-((5-chloro-2-((1-(2-methoxyethyl)-1H-pyrazol-4-yl)amino)pyrimidin-4-yl)amino)phenyl)acrylamide] showed a pIC50 of 7.00 to 8.00.

With `C=CC(=O)Nc1cccc(Nc2nc(Nc3cnn(CCO)c3)ncc2Cl)c1` [Compound I-21, N-(3-((5-chloro-2-((1-(2-hydroxyethyl)-1H-pyrazol-4-yl)amino)pyrimidin-4-yl)amino)phenyl)acrylamide] the pIC50 was > 8.00.

With `C=CC(=O)Nc1cccc(Nc2nc(Nc3cnn(S(=O)(=O)C4CC4)c3)ncc2Cl)c1` [Compound I-22, N-(3-((5-chloro-2-((1-(cyclopropylsulfonyl)-1H-pyrazol-4-yl)amino)pyrimidin-4-yl)amino)phenyl)acrylamide] the pIC50 was 7.00 to 8.00.

`C=CC(=O)Nc1cccc(Nc2nc(Nc3cnn(C)c3C)ncc2Cl)c1` [Compound I-23, N-(3-((5-chloro-2-((1,5-dimethyl-1H-pyrazol-4-yl)amino)pyrimidin-4-yl)amino)phenyl)acrylamide] was tested, and the pIC50 was < 7.00.

`C=CC(=O)Nc1cccc(Nc2nc(Nc3cc(COC)n(C)n3)ncc2Cl)c1` [Compound I-24, N-(3-((5-chloro-2-((5-(methoxymethyl)-1-methyl-1H-pyrazol-3-yl)amino)pyrimidin-4-yl)amino)phenyl)acrylamide] was tested, and the pIC50 was 7.00 to 8.00.

In the case of `CN1CCC(n2cc(Nc3ncc(Cl)c(Nc4cccc(NC(=O)C=C5CCC(F)(F)CC5)c4)n3)cn2)CC1` [Compound I-25, N-(3-((5-chloro-2-((1-(1-methylpiperidin-4-yl)-1H-pyrazol-4-yl)amino)pyrimidin-4-yl)amino)phenyl)-2-(4,4-difluorocyclohexylidene)acetamide], the pIC50 was < 7.00.

`CN1CCC(n2cc(Nc3ncc(Cl)c(Nc4cccc(NC(=O)C=C5CCOCC5)c4)n3)cn2)CC1` [Compound I-26, N-(3-((5-chloro-2-((1-(1-methylpiperidin-4-yl)-1H-pyrazol-4-yl)amino)pyrimidin-4-yl)amino)phenyl)-2-(dihydro-2H-pyran-4(3H)-ylidene)acetamide] was tested, and the pIC50 was < 7.00.

In the case of `CN1CCC(n2cc(Nc3ncc(Cl)c(Nc4ccc(F)c(NC(=O)C=C5CCCCC5)c4)n3)cn2)CC1` [Compound I-27, N-(5-((5-chloro-2-((1-(1-methylpiperidin-4-yl)-1H-pyrazol-4-yl)amino)pyrimidin-4-yl)amino)-2-fluorophenyl)-2-cyclohexylideneacetamide], the pIC50 was < 7.00.

With `CN1CCC(n2cc(Nc3ncc(Cl)c(Nc4cccc(NC(=O)C=C5CCCCC5)c4)n3)cn2)CC1` [Compound I-28, N-(3-((5-chloro-2-((1-(1-methylpiperidin-4-yl)-1H-pyrazol-4-yl)amino)pyrimidin-4-yl)amino)phenyl)-2-cyclohexylideneacetamide] the pIC50 was < 7.00.

With `CN1CCC(n2cc(Nc3ncc(Cl)c(Nc4cccc(NC(=O)C=C5CCC5)c4)n3)cn2)CC1` [Compound I-29, N-(3-((5-chloro-2-((1-(1-methylpiperidin-4-yl)-1H-pyrazol-4-yl)amino)pyrimidin-4-yl)amino)phenyl)-2-cyclobutylideneacetamide] the pIC50 was < 7.00.
